Experimental data from patent US11160808B2, “Compounds that enhance Atoh1 expression” (Massachusetts Eye & Ear Infirmary, priority 2008, dated 2021).
Where two headings read alike, the source gives them in different places.

What was measured:
[1] = tested on: Math1 enhancer and minimal promoter Luciferase reporter in HEK cells; experiment: Math1 Luciferase reporter assay in HEK cells; format: cell-based, human
From the text: A human embryonic kidney (HEK) cell line stably expressing a Luciferase gene controlled by an Math1 enhancer and minimal promoter was used in a high-throughput screen (HTS) of 144,000 small molecules to identify compounds that increase Math1 expression (i.e., transcription and/or translation). Such compounds can be used to increase the conversion of stem cells, progenitor cells, and support cells to or towards a hair cell. Screens to identify such compounds are described by Li et al., (U.S. Publication No. 2005/0287127) and Li et al., (U.S. application Ser. No. 11/953,797).
HEK cells stably expressing the Math1 Luciferase reporter were plated onto 384 well plates and cultured overnight in medium containing 10% fetal calf serum (FCS). Activation of the Math1 enhancer was measured by the increase in luminescence on a plate reader following addition of a luciferase detection agent. The assay was optimized for cell number, time of incubation, volume of medium, cell lysis reagent and luciferase reagent. Luminescence levels were compared in cells with the Math1-luciferase construct with and without retinoic acid (1 μM), and/or a luciferase construct with and without the Math1 enhancer and minimal promoter region.
To improve assay sensitivity, and reduce the coefficient of variation (CV), a more sensitive luciferase reagent (BriteLite luciferase reporter assay reagent, Perkin Elmer) was used, and Triton-X-100 was added to the lysis reagent to ensure complete lysis of the cells. Following these changes a CV of 4.2% was recorded. These conditions were used for all high-throughput screens. The luminescence threshold for a compound to be positive was defined as a 2-fold increase above the control (e.g., cells exposed to DMSO).
Cells were seeded on 384 well plates and allowed to attach overnight at 37° C. with 5% CO2 in the absence of growth factors. Math1 activation was measured by the increase in luminescence on a plate reader following addition of a luciferase detection reagent. Luminescence was assessed at 24, 48, and 72 hours. These conditions were used to screen 144,000 compounds contained in the small molecule libraries at Harvard University's Laboratory for Drug Discovery in Neurodegeneration (LDDN).
HTS were performed using HEK-Math1 cells seeded in 384 well plates. One compound was added per well using pin transfer. The final concentration of each compound was […]. Cell were incubated in the presence of a compound for 48 hours at 37° C. with 5% CO2. Cell lysates then were collected and bioluminescence determined. Luminescence values were compared normalized against DMSO.
About 20000 compounds were screened per week in 50 plates of 384 well with the aid of robotic systems (Beckman Biomek FX). Compounds were screened at an average final concentration of 0.7 μM (in 0.04% DMSO) with each plate containing 16 wells of 1 μM retinoic acid, as a positive control, and 16 wells of 0.04% DMSO, as a vehicle control. Percent activation of luminescence in the test compounds was determined for cells treated with the compounds against cells treated with DMSO.
(§1) Ten compounds, randomly selected from the group of 110 compounds identified in Example 2, were further evaluated, as follows. HEK cells were plated on 96 well plates at a density of 100000 cells per well. One day after plating, 0.1, 1, and 5 μM of each positive compound was added per well in a 10% fetal bovine serum (FBS) DMEM solution. Cells were then lysed 48 hours after addition of the compound and Math1 expression was analyzed using a luciferase reporter assay, as described above, and real-time PCR.
The half maximal inhibitory concentration (IC50) and median lethal dose or Lethal Dose, 50% (LD50) were determined for each of the compounds identified in Example 2 using standard laboratory techniques. IC50 is a measure of the effectiveness of a compound in inhibiting biological or biochemical function. LD50 is the amount of a compound required to kill half the members of a tested population.

[2] = LD50 (median lethal dose) determination; format: cell-based
From the text: IC50 is a measure of the effectiveness of a compound in inhibiting biological or biochemical function. LD50 is the amount of a compound required to kill half the members of a tested population.

Math1 mRNA = Math1 mRNA expression by RT-PCR in HEK cells; format: cell-based, human; conditions: among the four randomly selected compounds
Method: as §1
RNA was also isolated and Math1 transcripts were amplified using high-throughput RT-PCR.

[3] = Homo sapiens, HEK293; read-out: IC50
[4] = Homo sapiens, HEK293; read-out: Maximum (Fold DMSO)

For COc1ccc(-c2nc3ccccc3n2CCc2ccccc2)cc1 [CP-0193184, 2-(4-methoxyphenyl)-1-phenethyl-1H-benzo[d]imidazole], the IC50 [1, 3] was > 10000 nM, the “LD50” value [2] was >30 µM and the “increase in Math1 mRNA expression (ranking in words)” value (Math1 mRNA) was “highest increase”.

For COc1cccc2c1OCC(C(=O)Nc1ccc(Cl)cc1Cl)=C2 [CP-0000928, N-(2,4-dichlorophenyl)-8-methoxy-2H-chromene-3-carboxamide], the IC50 [1, 3] was 300 nM, the maximal fold induction [1, 4] was 2 and the “LD50” value [2] was >10 µM.

In the case of COc1ccc(C2C=C(c3ccc(Cl)cc3)Nc3nc4ccccc4n32)cc1 (stereo not drawn) [CP-0050095, 2-(4-chlorophenyl)-4-(4-methoxyphenyl)-1,4-dihydrobenzo[4.5]imi-dazo[1,2-a]pyrimidine], the IC50 ([1]; Homo sapiens, HEK293) is reported as 1500 nM, the maximal fold induction ([1]; Homo sapiens, HEK293, read-out: Maximum (Fold DMSO)) is reported as 2.6 and the “LD50” value [2] is reported as >10 µM.

With COc1ccc(-c2nc3ccc(Cl)cc3n2OCc2ccccc2Cl)cc1 [CP-0000550, 6-chloro-1-(2-chlorobenzyloxy)-2-(4-methoxyphenyl)-1H-benzo[d]imidazole] the IC50 [1, 3] was 30 nM, the maximal fold induction [1, 4] was 2 and the “LD50” value [2] was >30 µM.

In the case of O=C(Nc1ccc(I)cc1)c1ccco1 [CP-0072253, N-(4-iodophenyl)furan-2-carboxamide], the IC50 [1, 3] is reported as 1300 nM, the maximal fold induction [1, 4] is reported as 2 and the “LD50” value [2] is reported as >10 µM.

In the case of COc1cc(C)c2c(=O)cc(-c3ccccc3)oc2c1 [CP-0096433, 7-methoxy-5-methyl-2-phenyl-4H-chromen-4-one], the IC50 [1, 3] is reported as 3000 nM, the maximal fold induction [1, 4] is reported as 2 and the “LD50” value [2] is reported as >10 µM.

For CC(C)COc1ccc(C2Nc3ccccc3C(=O)N2c2ccc3ccccc3c2)cc1 (stereo not drawn) [CP-0034360, 2-(4-isobutoxyphenyl)-3-(naphthalen-2-yl)-2,3-dihydroquinazolin-4(1H)-one], the IC50 [1, 3] was 1000 nM, the maximal fold induction [1, 4] was 2 and the “LD50” value [2] was >10 µM.

With COc1ccc(COn2c(-c3ccc(OC)cc3)nc3ccc(Cl)cc32)cc1 [CP-0000557, 6-chloro-1-(4-methoxybenzyloxy)-2-(4-methoxyphenyl)-1H-benzo[d]imidazole] the IC50 [1, 3] was 20 nM, the maximal fold induction [1, 4] was 2.6 and the “LD50” value [2] was 30 µM.

In the case of Cc1cc(Cl)ccc1OCc1nc(-c2ccncc2)no1 [CP-0067108, 5-((4-chloro-2-methylphenoxy)methyl)-3-(pyridin-4-yl)-1,2,4-oxadiazole], the IC50 [1, 3] is reported as 3000 nM, the maximal fold induction [1, 4] is reported as 1.8 and the “LD50” value [2] is reported as >10 µM.

In the case of COc1ccc(-c2csc(-c3c(C)noc3N)n2)cc1 [CP-0105343, 4-(4-(4-methoxyphenyl)thiazol-2-yl)-3-methylisoxazol-5-amine], the IC50 [1, 3] is reported as 3000 nM, the maximal fold induction [1, 4] is reported as 2 and the “LD50” value [2] is reported as >10 µM.

With COc1ccc(Br)c(-c2nc(-c3cccs3)no2)c1 [CP-0104904, 5-(2-bromo-5-methoxyphenyl)-3-(thiophen-2-yl)-1,2,4-oxadiazole] the IC50 [1, 3] was > 10000 nM, the maximal fold induction [1, 4] was 2.2 and the “LD50” value [2] was >10 µM.

For N#Cc1c(NC(=O)c2ccccc2F)sc2c1CCCC2 [CP-0060852, N-(3-cyano-4,5,6,7-tetrahydrobenzo[b]thio-phen-2-yl)-2-fluorobenzamide], the IC50 [1, 3] was 2500 nM, the maximal fold induction [1, 4] was 1.8 and the “LD50” value [2] was >10 µM.

With c1ccc(CCn2nnc3ccccc32)cc1 [CP-0070871, 1-phenethyl-1H-benzo[d][1,2,3]triazole] the IC50 [1, 3] was 3000 nM, the maximal fold induction [1, 4] was 2 and the “LD50” value [2] was >10 µM.

With COc1ccccc1-c1nc(-c2ccc(C)cc2)no1 [CP-0067246, 5-(2-methoxyphenyl)-3-p-tolyl-1,2,4-oxadiazole] the IC50 [1, 3] was 1800 nM, the maximal fold induction [1, 4] was 1.5 and the “LD50” value [2] was >10 µM.

With Cc1cc(NC(=O)c2ccc3c(c2)OCO3)no1 [CP-0065665, N-(5-methylisoxazol-3-yl)benzo[d][1,3]dioxole-5-carboxamide] the IC50 [1, 3] was 800 nM, the maximal fold induction [1, 4] was 1.7 and the “LD50” value [2] was >10 µM.

In the case of CC(=O)Nc1ccc2nc(NC(=O)c3ccco3)sc2c1 [CP-0105777, N-(6-acetamidobenzo[d]thiazol-2-yl)furan-2-carboxamide], the IC50 [1, 3] is reported as 300 nM, the maximal fold induction [1, 4] is reported as 2 and the “LD50” value [2] is reported as >10 µM.

In the case of CC(C)(C)c1ccc(C(=O)NCC2CCCO2)cc1 (stereo not drawn) [CP-0061566, 4-tert-butyl-N-((tetrahydrofuran-2-yl)methyl)benzamide], the IC50 [1, 3] is reported as 200 nM, the maximal fold induction [1, 4] is reported as 2 and the “LD50” value [2] is reported as >10 µM.

For Cc1ccc(-c2cnc3ccccc3n2)cc1C [CP-0045061, 2-(3,4-dimethylphenyl) quinoxaline], the IC50 [1, 3] was 3000 nM, the maximal fold induction [1, 4] was 1.9 and the “LD50” value [2] was >10 µM.

In the case of O=C(c1ccc(-c2ccc(Br)cc2)o1)N1CCOCC1 [CP-0061777, (5-(4-bromophenyl)furan-2-yl)(morpholino)methanone], the IC50 [1, 3] is reported as > 10000 nM, the maximal fold induction [1, 4] is reported as 2.1 and the “LD50” value [2] is reported as >10 µM.

In the case of c1ccc2sc(-c3cnc(N4CCOCC4)nc3)cc2c1 [CP-0059563, 4-(5-(benzo[b]thiophen-2-yl)pyrimidin-2-yl)morpholine], the IC50 [1, 3] is reported as > 10000 nM, the maximal fold induction [1, 4] is reported as 1.9 and the “LD50” value [2] is reported as >10 µM.

With Cc1ccccc1-c1nnc(-c2ccccc2)o1 [CP-0062030, 2-phenyl-5-o-tolyl-1,3,4-oxadiazole] the IC50 [1, 3] was 2000 nM, the maximal fold induction [1, 4] was 1.6 and the “LD50” value [2] was >10 µM.

For COc1ccc(-c2nc3ccc(Cl)cc3n2OCc2ccc(C)cc2)cc1 [CP-0000553, 6-chloro-2-(4-methoxyphenyl)-1-(4-methylbenzyloxy)-1H-benzo[d]imidazole], the IC50 [1, 3] was 10 nM, the maximal fold induction [1, 4] was 2 and the “LD50” value [2] was >30 µM.

With O=C(COc1ccccc1)N1CCc2ccccc21 [CP-0110644, 1-(indolin-1-yl)-2-phenoxyethanone] the IC50 [1, 3] was 1000 nM, the maximal fold induction [1, 4] was 1.8 and the “LD50” value [2] was >10 µM.

With CN(C)c1ccc(C2NN=C(c3ccc(Cl)cc3)N2)cc1 (stereo not drawn) [CP-0007994, 4-(3-(4-chlorophenyl)-4,5-dihydro-1H-1,2,4-triazol-5-yl)-N,N-dimethylaniline] the IC50 [1, 3] was 1000 nM, the maximal fold induction [1, 4] was 1.9 and the “LD50” value [2] was >10 µM.

In the case of Cc1ccc(-c2noc(CN3CCCCC3)n2)cc1 [CP-0070164, 5-(piperidin-1-ylmethyl)-3-p-tolyl-1,2,4-oxadiazole], the IC50 [1, 3] is reported as 1600 nM, the maximal fold induction [1, 4] is reported as 1.7 and the “LD50” value [2] is reported as >10 µM.

With CC(=O)c1sc(-c2ccc(C(C)(C)C)cc2)cc1N [CP-0008545, 1-(3-amino-5-(4-tert-butylphenyl)thiophen-2-yl)ethanone] the IC50 [1, 3] was 400 nM, the maximal fold induction [1, 4] was 2.5 and the “LD50” value [2] was >10 µM.

With COc1ccc(-c2cn3ccsc3n2)cc1 [CP-0061401, 6-(4-methoxyphenyl) imidazo[2,1-b]thiazole] the IC50 [1, 3] was 600 nM, the maximal fold induction [1, 4] was 1.8 and the “LD50” value [2] was >10 µM.

With O=C(CSc1nc2ccccc2c(=O)n1NC(=O)c1ccccc1)c1ccc(F)cc1 [CP-0036187, N-(2-(2-(4-fluorophenyl)-2-oxoethylthio)-4-oxoquinazolin-3(4H)-yl)benzamide] the IC50 [1, 3] was 1000 nM, the maximal fold induction [1, 4] was 2.3 and the “LD50” value [2] was >10 µM.

With CCN(CC)c1ncnc2c1cnn2-c1cccc(C)c1 [CP-0079810, N,N-diethyl-1-m-tolyl-1H-pyrazolo[3,4-d]pyrimidin-4-amine] the IC50 [1, 3] was 3000 nM, the maximal fold induction [1, 4] was 2.3 and the “LD50” value [2] was >10 µM.
